Assay: Particle size distribution of micronised BDP by laser diffraction (Malvern)
Assay type: physicochemical
Details: micronised beclometasone dipropionate; volume diameter of 10% of particles
Experimental: The size of the particles of the active is determined by measuring the characteristic equivalent sphere diameter, known as volume diameter, by laser diffraction. In the reported examples, the volume diameter has been determined using a Malvern apparatus. However, other equivalent apparatus may be used by the skilled person in the art.
The particle size was determined by laser diffraction using a Malvern apparatus. The parameter taken into consideration was the VD in microns of 10%, 50% and 90% of the particles expressed as d(v,0.1), d(v, 0.5) and d(v, 0.9), respectively, which correspond to the mass diameter assuming a size independent density for the particles. The span [d(v,0.9)−d(v,0.1)]/d(v,0.5) is also reported. The Specific Surface Area (SSA) was determined by BET nitrogen adsorption using a Coulter SA3100 apparatus as a mean of three determinations.

Row | Compound | d (v, 0.1) [μm]
1 | CCC(=O)OCC(=O)[C@@]1(OC(=O)CC)[C@@H](C)C[C@H]2[C@@H]3CCC4=CC(=O)C=C[C@]4(C)[C@@]3(Cl)[C@@H](O)C[C@@]21C [Batch 1, beclometasone dipropionate] | 0.86
2 | CCC(=O)OCC(=O)[C@@]1(OC(=O)CC)[C@@H](C)C[C@H]2[C@@H]3CCC4=CC(=O)C=C[C@]4(C)[C@@]3(Cl)[C@@H](O)C[C@@]21C [Batch 2, beclometasone dipropionate] | 0.96
3 | CCC(=O)OCC(=O)[C@@]1(OC(=O)CC)[C@@H](C)C[C@H]2[C@@H]3CCC4=CC(=O)C=C[C@]4(C)[C@@]3(Cl)[C@@H](O)C[C@@]21C [Batch 3, beclometasone dipropionate] | 0.95
4 | CCC(=O)OCC(=O)[C@@]1(OC(=O)CC)[C@@H](C)C[C@H]2[C@@H]3CCC4=CC(=O)C=C[C@]4(C)[C@@]3(Cl)[C@@H](O)C[C@@]21C [Batch 4, beclometasone dipropionate] | 0.91

Reference: patent US8778402B2, “Dry powder formulation comprising a corticosteroid and a beta-adrenergic for administration by inhalation” (Chiesi Farmaceutici S.p.A., priority 2012, dated 2014)
